{"source": "patent US20150297562A1", "about": "“ANALGESIC” (NIPPON ZOKI PHARMACEUTICAL CO., LTD., priority 2012, published 2015)"}
{"test_system": "MIA-induced OA rats", "assay": "Analgesic action to MIA-induced osteoarthritis model rats (von Frey test, 50% reaction threshold to mechanical stimulus)", "assay_type": "in vivo, rat (male Wistar)", "conditions": "Rattus norvegicus, ip, single intraperitoneal dose of 200 μg/kg, von Frey test after 1 hour from administration, normal threshold value 15, read-out: Recovery rate of 50% reaction threshold value (%)", "procedure": "Pharmacological Test I: Analgesic Action to Osteoarthritis Model Rats\nThere were conducted the following experiments for testing the analgesic action of the analgesic of the present invention using the osteoarthritis (OA) rats induced by sodium monoiodoacetate (MIA) which were model animals for OA.\n(1) Preparation of MIA-Induced OA Rats\nA 50% reaction threshold value to the mechanical stimulus of male Wistar rats of six weeks age was measured (the measuring method will be mentioned later) and a normal control group was selected. MIA prepared by saline was administered in a single dose of 300 μg/50 μL into right knee joint of the rats except the normal control group while 50 μL of saline was administered into left knee joint whereupon the MIA-induced OA rats were prepared. To the normal control group, 50 μL of saline was administered into the joints of both knees.\nWith regard to the male Wistar rats of six weeks age used as experimental animals except the normal control group, their 50% reaction threshold values to the mechanical stimulus (the measuring method will be mentioned later) and body weights were measured after […] from the administration of MIA mentioned in (1) and then 3 groups each comprising six rats [a normal control group, an onset control group and a test drug-administered group] were organized.\n(3) Administration of Test Drug\nA test drug solution (100 μg/mL) using the compound according to the analgesic of the present invention as a test drug was prepared using a phosphate buffered saline (PBS) containing 0.1 vol % of dimethyl sulfoxide (DMSO).\nImmediately after the grouping (after 14 days from the administration of MIA), a test drug solution was intraperitoneally administered in a single dose of 200 μg/kg to a test drug-administered group. Meanwhile, to the normal control group and the onset control group, PBS containing 0.1 vol % of DMSO was intraperitoneally administered in a single dose.\n(4) Result of Measurement of the 50% Reaction Threshold Values to the Mechanical Stimulus (Von Frey Test)\nThe three groups of rats of the above (2) were placed in a transparent acrylic cage with a wire-meshed floor and habituated for about three minutes and the 50% reaction threshold values to the mechanical stimulus were measured after 1 hour from the administration of a test drug. The measurement was conducted using von Frey filaments (manufactured by North Coast Medical Inc.) in accordance with the methods of Chaplan, et al. (Journal of Neuroscience Methods, vol. 53, no. 1, pages 55 to 63, 1994) and Dixon, et al. (Annual Review of Pharmacology and Toxicology, vol. 20, pages 441 to 462, 1980). […] The case where the rat escaped at the instance of removing the filament was also called positive. When the positive reaction was noted, stimulus was conducted similarly using a filament of one rank weaker while, when no reaction was noted, stimulus was conducted similarly using a filament of one rank stronger and the point when the reaction changed from negative to positive or from positive to negative was called the first two reactions. After that, stimulus was conducted for continuous four times by the same up-down method. A 50% reaction threshold value to the mechanical stimulus was measured using the reaction to the six stimuli in total and then (mean value)±(standard error) for each group was calculated. Incidentally, when stimulus reached by that of 15.0 g without positive reaction or, when positive reaction continued to 0.4 g, then 15.0 g or 0.25 g was adopted as each threshold value, respectively.\nWith regard to the 50% reaction threshold value after 1 hour from administration of a test drug, a recovery rate (%) of the 50% reaction threshold value was calculated by the following expression in which 15 was adopted as the normal threshold value. […]", "units": {"inhibition in vivo at 0.2 mg/kg": "%"}}
{"smiles": "CCCCCCC/C=C/C(=O)NC1CCCCC1", "note": "[Compound 27, (E)-N-cyclohexyl dec-2-enamide]", "inhibition in vivo at 0.2 mg/kg": 5.8}
{"smiles": "CCCCCCC/C=C/C(=O)OCCN(C)C", "note": "[Compound 1, (E)-2-(dimethylamino)ethyl dec-2-enoate]", "inhibition in vivo at 0.2 mg/kg": 25.5}
{"smiles": "CCCCCCC/C=C/C(=O)NCC(C)C", "note": "[Compound 18, (E)-N-isobutyl dec-2-enamide]", "inhibition in vivo at 0.2 mg/kg": 49}
{"smiles": "CCCCCCC/C=C/C(=O)NCCCCCC", "note": "[Compound 22, (E)-N-hexyl dec-2-enamide]", "inhibition in vivo at 0.2 mg/kg": 44.3}
{"smiles": "CCCCCCC/C=C/C(=O)OCCSC(C)C", "note": "[Compound 8, (E)-2-(isopropylthio)ethyl dec-2-enoate]", "inhibition in vivo at 0.2 mg/kg": 28.9}
{"smiles": "CCCCCCC/C=C/C(=O)SCCN(CC)CC", "note": "[Compound 56, (E)-S-2-(diethylamino)ethyl dec-2-enethioate]", "inhibition in vivo at 0.2 mg/kg": 21.8}
{"smiles": "CCCCCCC/C=C/C(=O)OCCOC", "note": "[Compound 9, (E)-2-methoxyethyl dec-2-enoate]", "inhibition in vivo at 0.2 mg/kg": 13}
{"smiles": "CCCCCCC/C=C/C(=O)SCCCCCC", "note": "[Compound 50, (E)-S-hexyl dec-2-enethioate]", "inhibition in vivo at 0.2 mg/kg": 15.6}
{"smiles": "CCCCCCC/C=C/C(=O)N(CCN(C)C)CCN(C)C", "note": "[Compound 45, (E)-N,N-bis(2-(dimethylamino)ethyl) dec-2-enamide]", "inhibition in vivo at 0.2 mg/kg": 10.2}
{"smiles": "CCCCCCC/C=C/C(=O)N(CC)CCN(CC)CC", "note": "[Compound 44 (Citrate), (E)-N-(2-(diethylamino)ethyl)-N-ethyl dec-2-enamide]", "inhibition in vivo at 0.2 mg/kg": 21.7}
{"smiles": "CCCCCCC/C=C/C(=O)NCCN(CC)CC", "note": "[Compound 37 (Citrate), (E)-N-2-(diethylamino)ethyl dec-2-enamide]", "inhibition in vivo at 0.2 mg/kg": 45.1}
